In ChEMBL document CHEMBL1201862, “PubChem BioAssay data set” (2004):
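Cells were grown in 96-well plates and exposed to each compound for 48 hours at five concentrations; endpoints were interpolated linearly between bracketing concentrations, or set to the highest concentration if not reached. GI50 = concentration required for 50% inhibition of growth.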 The source made the active and inactive calls. No stated cut-off is given here; in the data, active = GI50 up to about 1.1 µM and inactive = higher.

Tests used:
Assay in all cases: NCI tumour cell line growth inhibition, 48 h
MOLT-4 = system: MOLT-4
MDA-N = system: MDA-N
Malme-3M = system: Malme-3M
COLO 205 = system: COLO 205
HCC 2998 = system: HCC 2998
TK-10 = system: TK-10
BT-549 = system: BT-549
RXF 393 = system: RXF 393
SK-MEL-5 = system: SK-MEL-5
SNB-75 = system: SNB-75
KM12 = system: KM12
SK-MEL-2 = system: SK-MEL-2
OVCAR-3 = system: OVCAR-3
LOX IMVI = system: LOX IMVI
MCF7 = system: MCF7
HOP-62 = system: HOP-62
SN12C = system: SN12C
RPMI-8226 = system: RPMI-8226
Hs-578T = system: Hs-578T
SR = system: SR

Compound | GI50 (MOLT-4) | GI50 (MDA-N) | GI50 (Malme-3M) | GI50 (COLO 205) | GI50 (HCC 2998) | GI50 (TK-10) | GI50 (BT-549) | GI50 (RXF 393) | GI50 (SK-MEL-5) | GI50 (SNB-75) | GI50 (KM12) | GI50 (SK-MEL-2) | GI50 (OVCAR-3) | GI50 (LOX IMVI) | GI50 (MCF7) | GI50 (HOP-62) | GI50 (SN12C) | GI50 (RPMI-8226) | GI50 (Hs-578T) | GI50 (SR)
CN(CCNC(=O)c1nn(C)c2c1Cc1ccccc1-2)CCNC(=O)c1nn(C)c2c1Cc1ccccc1-2 | 12.4 µM (inactive) | 14.5 µM (inactive) | 16.3 µM (inactive) | 11.9 µM (inactive) | 12.5 µM (inactive) | 15.7 µM (inactive) | 16.2 µM (inactive) | 14.8 µM (inactive) | 12.1 µM (inactive) | 14.4 µM (inactive) | 19.1 µM (inactive) | 14.7 µM (inactive) | 11.4 µM (inactive) | 16.4 µM (inactive) | 11.1 µM (inactive) | 15.4 µM (inactive) | 14.9 µM (inactive) |  |  | 
Cc1cccc(-c2cc(O)c3c(C)ccnc3n2)c1 | 0.71 µM (active) | 0.0474 µM (active) |  | 0.208 µM (active) | 1.03 µM (active) | > 53.1 µM (inactive) | > 100 µM (inactive) | 0.455 µM (active) | 0.269 µM (active) | 0.36 µM (active) | 0.209 µM (active) | 0.321 µM (active) | 0.256 µM (active) | 0.667 µM (active) | 0.319 µM (active) | 0.597 µM (active) | 0.564 µM (active) | 0.468 µM (active) | 0.356 µM (active) | 
CC(C)(CC#N)c1cc(CC(C)(C)c2cc(CC(C)(C)c3cc(C(C)(C)C4(C)OCCO4)no3)no2)no1 | > 100 µM (inactive) | 51.1 µM (inactive) | 91 µM (inactive) | > 100 µM (inactive) | > 100 µM (inactive) | 51.5 µM (inactive) | 52.5 µM (inactive) | 7.89 µM (inactive) | 75.7 µM (inactive) | 14.7 µM (inactive) | > 100 µM (inactive) | 42.7 µM (inactive) | 56 µM (inactive) |  | 19.1 µM (inactive) | 27 µM (inactive) | 25.8 µM (inactive) | > 100 µM (inactive) | 22.8 µM (inactive) | 
CCOC(=O)c1c2c(n(C)c1-c1ccccc1)C(=O)C(C)=CC2=O | 2.55 µM (inactive) | 2 µM (inactive) | 9.04 µM (inactive) | 1.57 µM (inactive) |  | 8.43 µM (inactive) | 13.2 µM (inactive) | 8.97 µM (inactive) | 9.62 µM (inactive) | 14.9 µM (inactive) | 6.04 µM (inactive) | 13.6 µM (inactive) | 2.86 µM (inactive) | 3.48 µM (inactive) | 2.37 µM (inactive) | 17.3 µM (inactive) | 7.69 µM (inactive) | 1.9 µM (inactive) | 18.4 µM (inactive) | 1.91 µM (inactive)
COc1cc2nc(-c3cccs3)nc(N3C(c4cc(OC)c(OC)c(OC)c4)=NNC(=O)c4ccccc43)c2cc1OC | > 100 µM (inactive) |  | 18.7 µM (inactive) | > 100 µM (inactive) |  | 22.8 µM (inactive) | 18.9 µM (inactive) |  | 34.9 µM (inactive) | 25.7 µM (inactive) | 18.5 µM (inactive) | 76 µM (inactive) | 6.43 µM (inactive) | 15.8 µM (inactive) | 46.3 µM (inactive) | 66.8 µM (inactive) | 21.2 µM (inactive) |  | 38.9 µM (inactive) | 6.93 µM (inactive)
O=c1c2ccccc2sc2ccccc12 | > 100 µM (inactive) | > 100 µM (inactive) | > 100 µM (inactive) | > 100 µM (inactive) | > 100 µM (inactive) | > 100 µM (inactive) | > 100 µM (inactive) | > 100 µM (inactive) | > 100 µM (inactive) | > 100 µM (inactive) | > 100 µM (inactive) | > 100 µM (inactive) | > 100 µM (inactive) | > 100 µM (inactive) | > 100 µM (inactive) | > 100 µM (inactive) | > 100 µM (inactive) | > 100 µM (inactive) | > 100 µM (inactive) | 
N#C/C(=C/NC(=S)c1ccncc1)C(N)=O | > 100 µM (inactive) | > 100 µM (inactive) |  | > 100 µM (inactive) | > 100 µM (inactive) | > 100 µM (inactive) | > 100 µM (inactive) | > 100 µM (inactive) | > 100 µM (inactive) | > 100 µM (inactive) | > 100 µM (inactive) | > 100 µM (inactive) | > 100 µM (inactive) | > 100 µM (inactive) | > 100 µM (inactive) | > 100 µM (inactive) | > 100 µM (inactive) |  |  | 
COc1ccc2nc3cc(Cl)ccc3c(NCCCN(Cc3cc(OC)c(OC)c(OC)c3)Cc3cc(OC)c(OC)c(OC)c3)c2c1 | 1.34 µM (inactive) |  | 17.7 µM (inactive) | 4.3 µM (inactive) | 14.3 µM (inactive) | 23.1 µM (inactive) | 14.1 µM (inactive) | 3.38 µM (inactive) | 1.29 µM (inactive) |  | 13.8 µM (inactive) | 25.1 µM (inactive) | 19 µM (inactive) |  | 13.6 µM (inactive) | 4.65 µM (inactive) | 16.8 µM (inactive) | 3.07 µM (inactive) | 8.55 µM (inactive) | 2.31 µM (inactive)
S=c1[nH]c(Cl)cc2nc(Cl)cn12 |  | 1.98 µM (inactive) | 2.65 µM (inactive) | 2.83 µM (inactive) | 8.79 µM (inactive) | 7.5 µM (inactive) | 9.89 µM (inactive) | 2.84 µM (inactive) | 2.95 µM (inactive) | 2.1 µM (inactive) | 4.14 µM (inactive) | 3.85 µM (inactive) | 2.59 µM (inactive) | 7.85 µM (inactive) | 3.13 µM (inactive) | 4.84 µM (inactive) | 7.29 µM (inactive) | 16.1 µM (inactive) | 2.3 µM (inactive) | 
Cc1cc(S(=O)(=O)[N-]/C(=N/S(=O)(=O)c2ccc(Cl)cc2)[n+]2ccc(N(C)C)cc2)c(SCC(=O)O)cc1Cl | 34.7 µM (inactive) |  | 33.2 µM (inactive) | > 100 µM (inactive) |  | 86.5 µM (inactive) | > 100 µM (inactive) | 59.4 µM (inactive) |  | 20.5 µM (inactive) | > 100 µM (inactive) |  | 69.7 µM (inactive) | > 100 µM (inactive) | 43.8 µM (inactive) | 17.9 µM (inactive) | > 100 µM (inactive) | 71.1 µM (inactive) | > 100 µM (inactive) | 35 µM (inactive)
CC(=O)OCC1OC(c2nc3ccccc3s2)=CC(OC(C)=O)C1OC(C)=O (stereo not drawn) | > 10 µM (inactive) | > 100 µM (inactive) | > 100 µM (inactive) | > 100 µM (inactive) |  | > 100 µM (inactive) | > 100 µM (inactive) | 78.3 µM (inactive) | > 100 µM (inactive) | 22.2 µM (inactive) | > 100 µM (inactive) |  | > 100 µM (inactive) | > 100 µM (inactive) | > 100 µM (inactive) | > 100 µM (inactive) | > 100 µM (inactive) | 37.3 µM (inactive) | > 100 µM (inactive) | 41.1 µM (inactive)
CN(C)c1cc[n+](-c2nc([N-]C(=O)C(F)(F)F)nc3c2ncn3C2CC(O)C(CO)O2)cc1 (stereo not drawn) | > 100 µM (inactive) | > 100 µM (inactive) | > 100 µM (inactive) | > 100 µM (inactive) | > 100 µM (inactive) | > 100 µM (inactive) | > 100 µM (inactive) | > 100 µM (inactive) | > 100 µM (inactive) | > 100 µM (inactive) | > 100 µM (inactive) | > 100 µM (inactive) | > 100 µM (inactive) | > 100 µM (inactive) | > 100 µM (inactive) | > 100 µM (inactive) | > 100 µM (inactive) | > 100 µM (inactive) | > 100 µM (inactive) | 
CC(=O)/C(=C/N1C(=O)CC(=O)NC1=S)C(=O)Nc1ccccc1C | 28 µM (inactive) | 49.2 µM (inactive) |  | > 100 µM (inactive) | 29.4 µM (inactive) | > 100 µM (inactive) | > 100 µM (inactive) | 78.3 µM (inactive) | 57.9 µM (inactive) | 91.6 µM (inactive) | 37.5 µM (inactive) | > 100 µM (inactive) | 36.1 µM (inactive) | > 100 µM (inactive) | 60.4 µM (inactive) | 23.3 µM (inactive) | > 100 µM (inactive) |  |  | 
Cc1ccc(S(=O)(=O)Nn2c(O)c(C#N)c(-c3ccc([N+](=O)[O-])cc3)c(C#N)c2=O)cc1 | > 100 µM (inactive) | > 100 µM (inactive) | > 100 µM (inactive) | > 100 µM (inactive) | > 100 µM (inactive) | > 100 µM (inactive) | > 100 µM (inactive) | > 100 µM (inactive) | > 100 µM (inactive) | > 100 µM (inactive) | > 100 µM (inactive) | > 100 µM (inactive) |  | > 100 µM (inactive) | > 100 µM (inactive) | > 100 µM (inactive) | > 100 µM (inactive) |  |  | 
CC(C)(CO)CNc1nc(N)nc(Cl)c1N | > 100 µM (inactive) | > 100 µM (inactive) | > 100 µM (inactive) | > 100 µM (inactive) | > 100 µM (inactive) | > 100 µM (inactive) | > 100 µM (inactive) | > 100 µM (inactive) | 95.1 µM (inactive) | > 100 µM (inactive) | > 100 µM (inactive) | > 100 µM (inactive) | > 100 µM (inactive) | > 100 µM (inactive) | > 100 µM (inactive) | > 100 µM (inactive) | > 100 µM (inactive) |  | > 100 µM (inactive) | 
COc1ccc(N)c(C(=O)CCNC(C)=O)c1 [KINURENAMINE] | > 100 µM (inactive) | > 100 µM (inactive) |  | > 100 µM (inactive) |  | > 100 µM (inactive) | > 100 µM (inactive) | > 100 µM (inactive) | > 100 µM (inactive) | > 100 µM (inactive) | > 100 µM (inactive) | > 100 µM (inactive) | > 100 µM (inactive) | > 100 µM (inactive) | > 100 µM (inactive) |  | > 100 µM (inactive) | > 100 µM (inactive) | > 100 µM (inactive) | > 100 µM (inactive)
